Assays:
[1] = molecular target: T1, acyl-CoA:cholesterol acyltransferase (ACAT) (Oryctolagus cuniculus, UniProt G1SFD9); assay: in vitro ACAT inhibition, acylation of cholesterol by oleic acid in tissue preparation containing rabbit intestinal microsomes; assay type: biochemical; settings: concentration required to inhibit 50% expression of the enzyme
T1 construct: tissue preparation containing rabbit intestinal microsomes; from tissue; host or cells: rabbit intestinal microsomes
T1 sequence (G1SFD9 1-524): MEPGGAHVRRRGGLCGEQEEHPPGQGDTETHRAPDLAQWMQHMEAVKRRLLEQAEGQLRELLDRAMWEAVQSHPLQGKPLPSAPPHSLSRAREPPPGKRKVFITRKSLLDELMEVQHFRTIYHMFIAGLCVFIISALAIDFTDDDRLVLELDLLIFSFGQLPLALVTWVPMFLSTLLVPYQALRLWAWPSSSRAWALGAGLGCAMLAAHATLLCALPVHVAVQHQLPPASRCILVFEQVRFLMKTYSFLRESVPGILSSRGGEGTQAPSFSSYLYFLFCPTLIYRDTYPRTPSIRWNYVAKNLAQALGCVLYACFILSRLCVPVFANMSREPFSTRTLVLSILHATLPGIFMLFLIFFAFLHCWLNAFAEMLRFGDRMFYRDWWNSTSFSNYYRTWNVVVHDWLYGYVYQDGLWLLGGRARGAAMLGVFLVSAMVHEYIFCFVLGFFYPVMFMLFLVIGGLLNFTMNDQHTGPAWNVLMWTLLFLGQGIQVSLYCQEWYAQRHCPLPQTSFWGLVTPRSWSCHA
Procedure: The ability of representative compounds of the present invention to inhibit ACAT was measured using an in vitro test more fully described in Field, F. J. and Salone, R. G., Biochemica et Biophysica 712: 557-570 (1982). The test assesses the ability of a test compound to inhibit the acylation of cholesterol by oleic acid by measuring the amount of radio-labeled cholesterol oleate formed from radiolabeled oleic acid in a tissue preparation containing rabbit intestinal microsomes.
The data appear in Table 1 where they are expressed as IC50 values; i.e. the concentration of test compound required to inhibit 50% […] of the enzyme.

cholesterol = assay: in vivo screen APCC, cholesterol in rats fed PCC diet with cholic acid; set-up: species or system male Sprague-Dawley rats; settings: APCC rats dosed at 4 PM, PCC diet with 1% or 0.5% cholic acid overnight, blood cholesterol at 8 AM; dose not given
Excerpt: In one in vivo screen, designated APCC, male Sprague-Dawley rats (200 to 225 g) were randomly divided into treatment groups and dosed at 4 PM with either vehicle (CMC/Tween) or suspensions of compounds in vehicle. The normal, chow diet was then replaced with the PCC diet (RR 740-02122) with either 1% or 0.5% cholic acid, as indicated. The rats consumed this diet ad libitum during the night and were sacrificed at 8 AM to obtain blood samples for cholesterol analysis using standard procedures (RR 740-02122). Statistical differences between mean cholesterol values for the same vehicle were determined using analysis of variance followed by Fisher's least significant test.

| IC50 [1] [nM] | SMILES | % Change (mg/dl) (cholesterol) [%] |
| --- | --- | --- |
| 1050 | CC(C)c1cccc(C(C)C)c1NC(=O)[C@H](Cc1ccc(O)cc1)NC(=O)OC(C)(C)C [Example 21, (S)-1,1-Dimethylethyl[2-[[2,6-bis-(1-methylethyl)phenyl]amino]-1-[(4-hydroxyphenyl)-methyl]-2-oxoethyl]carbamate] |  |
| 350 | CC(C)c1cccc(C(C)C)c1NC(=O)[C@H](Cc1ccccc1)NC(=O)OC(C)(C)C [Example 41, (S)-α-N-(2,6-Diisopropylphenyl)benzenepropanamide] |  |
|  | Cc1ccc(S(=O)(=O)N(CC(=O)Nc2c(C(C)C)cccc2C(C)C)CC2(c3ccccc3)CCCC2)cc1 [Example 14, N-[2,6-bis(1-Methylethyl)phenyl]-2-[[(4-methylphenyl)sulfonyl][(1-phenylcyclopentyl)methyl]amino]acetamide] | -24 |
|  | CC(C)c1cccc(C(C)C)c1NC(=O)CN(CC1(c2ccccc2)CCCC1)C(=O)Nc1ccccc1 [Example 11, N-(2,6-bis(1-Methylethyl)phenyl]-2-[[(phenylamino)carbonyl][(1-phenylcyclopentyl)methyl]amino]-acetamide] | -3 |
| 960 | Cc1ccc(S(=O)(=O)N[C@@H](Cc2ccccc2)C(=O)Nc2c(C(C)C)cccc2C(C)C)cc1 [Example 52, (S)-N-[2,6-bis(1-Methylethyl)phenyl]-α-[[(4-methylphenyl)sulfonyl]amino]benzenepropanamide] |  |
| 55 | CC(C)c1cccc(C(C)C)c1NC(=O)CNC(c1ccccc1)c1ccccc1 [Example 4, N-[2,6-bis(1-Methylethyl)phenyl]-2-[(diphenylmethyl)amino]acetamide] | -45 |
| 100 | CC(C)c1cccc(C(C)C)c1NC(=O)CN(CC1(c2ccccc2)CCCC1)C(=S)Nc1ccccc1 [Example 10, N-[2,6-bis(1-Methylethyl)phenyl]-2-[[(phenylamino)thioxomethyl][(1-phenylcyclopentyl)methyl]amino]acetamide] | -30 |
